assay: Inhibition of arachidonate 5-lipoxygenase purified from porcine leukocytes.

**Q.** With `CCCCCCCCCCCCCCc1c(-c2ccc(O)c(O)c2)oc2c(OC)c(OC)cc(OC)c2c1=O` as the compound, how does the IC50 read?
**A.** Its IC50 is 115 nM.

**Q.** With `CCCCCCCCCCCCCCc1c(-c2ccc(O)c(O)c2)oc2cc(OC)c(OC)c(=O)c-2c1O` as the compound, how does the IC50 read?
**A.** The IC50 was 870 nM.

**Q.** For `CCCCCCOc1c(OC)c(OC)cc2oc(-c3ccc(O)c(O)c3)c(OC)c(=O)c12`, which IC50 is on record?
**A.** The IC50 was 280 nM.

**Q.** With `CCCCCCCCCCCCCCCCc1c(-c2ccc(O)c(O)c2)oc2c(OC)c(OC)cc(OC)c2c1=O` as the compound, how does the IC50 read?
**A.** The IC50 was 500 nM.

**Q.** For `CCCCCCOc1c(OC)c(OC)cc2oc(-c3ccc(O)c(O)c3)c(O)c(=O)c12`, which IC50 is on record?
**A.** The IC50 was 1350 nM.

**Q.** Which IC50 does the source give for `CCCCCCOc1cc(OC)c(OC)c2oc(-c3ccc(O)c(O)c3)c(O)c(=O)c12` here?
**A.** Its IC50 is 770 nM.

**Q.** Which IC50 does the source give for `CCCCCCCCCCCCCCCCc1c(-c2ccc(O)c(O)c2)oc2cc(OC)c(OC)c(OC)c2c1=O` here?
**A.** Its IC50 is 950 nM.

**Q.** With `COc1cc(O)c2c(=O)c(C)c(-c3ccc(O)c(O)c3)oc2c1OC` as the compound, how does the IC50 read?
**A.** Its IC50 is 300 nM.

**Q.** Which IC50 does the source give for `CCCCCCCCCCc1c(-c2ccc(O)c(O)c2)oc2c(OC)c(OC)cc(O)c2c1=O` here?
**A.** The IC50 was 135 nM.

**Q.** With `CCCCCCOc1c(-c2ccc(O)c(O)c2)oc2c(OC)c(OC)cc(OC)c2c1=O` as the compound, how does the IC50 read?
**A.** The IC50 was 88 nM.

**Q.** With `CCCCCCOc1c(-c2ccc(O)c(O)c2)oc2cc(OC)c(OC)c(OC)c2c1=O` as the compound, how does the IC50 read?
**A.** The IC50 was 126 nM.

**Q.** Which IC50 does the source give for `CCCCCCc1c(-c2ccc(O)c(O)c2)oc2cc(OC)c(OC)c(=O)c-2c1O` here?
**A.** The IC50 was 110 nM.

**Q.** Which IC50 does the source give for `CCCCCCCCCCCCCCCCc1c(-c2ccc(O)c(O)c2)oc2cc(OC)c(OC)c(=O)c-2c1O` here?
**A.** The IC50 was 1250 nM.

**Q.** With `CCCCCCCCCCc1c(-c2ccc(O)c(O)c2)oc2c(OC)c(OC)cc(OC)c2c1=O` as the compound, how does the IC50 read?
**A.** The IC50 was 86 nM.

**Q.** For `CCCCc1c(-c2ccc(O)c(O)c2)oc2cc(OC)c(OC)c(=O)c-2c1O`, which IC50 is on record?
**A.** The IC50 was 265 nM.

**Q.** Which IC50 does the source give for `CCCCCCCCc1c(-c2ccc(O)c(O)c2)oc2c(OC)c(OC)cc(OC)c2c1=O` here?
**A.** The IC50 was 62 nM.

**Q.** For `CCCCCCCCCCCCCCCCc1c(-c2ccc(O)c(O)c2)oc2c(OC)c(OC)cc(O)c2c1=O`, which IC50 is on record?
**A.** Its IC50 is 1500 nM.

**Q.** Which IC50 does the source give for `COc1cc2oc(-c3ccc(O)c(O)c3)c(C)c(=O)c2c(O)c1OC` here?
**A.** The IC50 was 480 nM.

**Q.** For `CCCCc1c(-c2ccc(O)c(O)c2)oc2c(OC)c(OC)cc(OC)c2c1=O`, which IC50 is on record?
**A.** Its IC50 is 100 nM.

**Q.** Which IC50 does the source give for `CCCCCCCCCCCCc1c(-c2ccc(O)c(O)c2)oc2c(OC)c(OC)cc(OC)c2c1=O` here?
**A.** The IC50 was 105 nM.

**Q.** Which IC50 does the source give for `CCCCCCc1c(-c2ccc(O)c(O)c2)oc2c(OC)c(OC)cc(OC)c2c1=O` here?
**A.** The IC50 was 58 nM.

assay: The compound was tested for the inhibition of Arachidonate 5-lipoxygenase purified from porcine leukocytes.

**Q.** Which IC50 does the source give for `CCCCCCCCCCCCc1c(-c2ccc(O)c(O)c2)oc2cc(OC)c(OC)c(OC)c2c1=O` here?
**A.** The IC50 was 175 nM.

**Q.** Which IC50 does the source give for `CCCCCCCCCCCCCCc1c(-c2ccc(O)c(O)c2)oc2cc(OC)c(OC)c(OC)c2c1=O` here?
**A.** The IC50 was 240 nM.

**Q.** With `CCCCCCCCCCCCc1c(-c2ccc(O)c(O)c2)oc2c(OC)c(OC)cc(O)c2c1=O` as the compound, how does the IC50 read?
**A.** Its IC50 is 340 nM.

**Q.** With `CCCCCCCCCCc1c(-c2ccc(O)c(O)c2)oc2cc(OC)c(OC)c(OC)c2c1=O` as the compound, how does the IC50 read?
**A.** The IC50 was 190 nM.

**Q.** With `CCCCCCCCCCCCc1c(-c2ccc(O)c(O)c2)oc2cc(OC)c(OC)c(=O)c-2c1O` as the compound, how does the IC50 read?
**A.** Its IC50 is 210 nM.

**Q.** With `CCCCCCCCc1c(-c2ccc(O)c(O)c2)oc2cc(OC)c(OC)c(OC)c2c1=O` as the compound, how does the IC50 read?
**A.** Its IC50 is 250 nM.

**Q.** Which IC50 does the source give for `CCCCCCCCCCCCCCc1c(-c2ccc(O)c(O)c2)oc2c(OC)c(OC)cc(O)c2c1=O` here?
**A.** Its IC50 is 500 nM.

Source: BindingDB's records for doi:10.1021/jm00111a037 (University of Tokushima, 1991)
